For the test, the system named is benzodiazepine receptors. Nature of the test: in vivo displacement of 3H-flunitrazepam from brain benzodiazepine receptors in mice. The settings on record: female NMR mice, i.p.; 3H-FNM i.v. 15 min after test substance; forebrain 20 min later; dose inhibiting 50% of specific 3H-FNM binding. An excerpt: The pharmaceutical properties of the compounds of the invention can be illustrated by determining their capability for displacing radioactive labelled flunitrazepam from benzodiazepine receptors.
The displacement activity of the compounds of the invention may be found by determining the ED50 value. The ED50 value represents the dose (mg/kg) of a test substance which causes the specific binding of flunitrazepam to benzodiazepine receptors in a living brain to be reduced to 50% of the control value.
Such an in vivo test is carried out as follows:
Principle. Twenty minutes after a dose of ^3 H-flunitrazepam (^3 H-FNM) (200 μCi/kg, i.v.) the amount of specific ^3 H-FNM binding to brain benzodiazepine receptors has reached its maximal value.
Test procedure. Suspensions of test substances (2 mg/ml) are prepared in 5% Duphasol-X (TM Duphar, castor oil-ethylene oxide derivative for emulsifying and solubilizing oil and other water-insoluble substances) by sonification for 10 min using a Branson B15 microtip ultrasonifier (setting 7). Groups of three mice (female, NMR, 18-22 grams) are injected with the test substance at 100 mg/kg intraperitoneally. Fifteen minutes after test substance administration the mice are challenged with 4 μCi intravenously of ^3 H-FNM (70-90) Ci/mole) in 200 μl physiological saline. Twenty minutes after ^3 H-FNM administration mice are sacrificed by decapitation, the forebrains rapidly excised (within 30 sec) and homogenized in 12 ml of icecold 25 mM KH2 PO4, pH 7.1, using an Ultra-Turrax homogenizer fitted with an N 10 shaft. […] The amounts of radioactivity on the filters are determined by conventional scintillation counting. […]
Results. The ED50 value is determined from dose response curves. If only one dose of test substance is administered the ED50 value is calculated as follows, provided that the inhibition of specific binding is within the range of 25-75%: [formula] where Co is specific binding in controls and Cx is specific binding in mice treated with test substance.
Background: Displacement assays read how much labelled ligand stays bound in the presence of the test substance.

The structures appear in SMILES notation.

Regarding `COc1cccc(Cn2c(=O)c3c(-c4cc(C)no4)ncn3c3ccccc32)c1` [Compound 27, 4,5-dihydro-5-(3-methoxybenzyl)-3-(3-methyl-5-isoxazolyl)-4-oxo-imidazo[1,5-a]quinoxaline], the ED50 was 0,45 mg/kg. As for `CC(C)n1c(=O)c2c(-c3cc(C4CC4)on3)ncn2c2ccccc21` [Compound 8, 3-(5-cyclopropyl-3-isoxazolyl)-4,5-dihydro-5-isopropyl-4-oxo-imidazo[1,5-a]quinoxaline], the ED50 is listed as 1,8 mg/kg. For `CC(C)=CCn1c(=O)c2c(-c3cc(C)no3)ncn2c2ccccc21` [Compound 29, 4,5-dihydro-5-(3,3-dimethylallyl)-3-(3-methyl-5-isoxazolyl)-4-oxo-imidazo[1,5-a]quinoxaline] the value was 0,37 mg/kg.
